{"source": "paper PMC8952214", "about": "(Pharmaceuticals, 2022)", "key": {"[1]": {"tested_on": "A/Parma/24/09 H1N1 (Brisbane-like) oseltamivir-resistant virus", "details": "Table 1; turkey erythrocytes; cited from earlier work"}, "[2]": {"tested_on": "A/Parma/24/09 H1N1 (Brisbane-like) oseltamivir-resistant virus", "details": "MDCK cells, c.p.e. by neutral red, 48 h; cited from earlier work"}, "[3]": {"tested_on": "A/Parma/24/09 H1N1 (Brisbane-like) oseltamivir-resistant virus", "format": "biochemical, Influenza A virus", "details": "Table 2; turkey erythrocytes; dash = not active"}, "[4]": {"tested_on": "A/Parma/24/09 H1N1 (Brisbane-like) oseltamivir-resistant virus", "experiment": "microbe, parasite or virus in culture", "format": "cell-based, Influenza A virus", "details": "for EC50: Influenza A virus, H1N1, MDCK, 48 h, read-out: EC50 A/Parma H1N1"}}, "note": "Where two headings read alike, the source gives them in different places."}
{"smiles": "Cc1ccc(S(=O)(=O)NC(C)c2ccc(-n3ccnc3)cc2)cc1C", "note": "(stereo not shown) [Compound 1]", "values": [{"measurement": "HI Titer A/Parma H1N1", "setting": "[1]", "value": 0.48, "unit": "µM"}, {"measurement": "EC50", "setting": "[2]", "value": 0.125, "unit": "µM"}]}
{"smiles": "Fc1ccc(CNc2ncnc3[nH]cnc23)cc1", "note": "[Compound 2]", "values": [{"measurement": "HI Titer A/Parma H1N1", "setting": "[1]", "value": 0.48, "unit": "µM"}]}
{"smiles": "COc1ccc(C(=O)Nc2cccc(S(=O)(=O)NCc3ccco3)c2)cc1", "note": "[Compound 3]", "values": [{"measurement": "HI Titer A/Parma H1N1", "setting": "[1]", "value": 0.48, "unit": "µM"}]}
{"smiles": "Cc1ccc(F)cc1NC(=O)COC(=O)c1ccc2ccccc2n1", "note": "[Compound 4]", "values": [{"measurement": "HI Titer A/Parma H1N1", "setting": "[1]", "value": 0.48, "unit": "µM"}, {"measurement": "EC50", "setting": "[2]", "value": 0.125, "unit": "µM"}]}
{"smiles": "Cc1ccc2nc(CNc3ccc(C)c(Cl)c3)cc(=O)n2c1", "note": "[Compound 5]", "values": [{"measurement": "HI Titer A/Parma H1N1", "setting": "[1]", "value": 0.48, "unit": "µM"}]}
{"smiles": "O=C(CC1(O)C(=O)Nc2ccccc21)c1ccccn1", "note": "(stereo not shown) [Compound 6]", "values": [{"measurement": "HI Titer A/Parma H1N1", "setting": "[3]", "value": 0.012, "unit": "pM"}, {"measurement": "SI (selectivity index) = CC50/EC50, A/Parma H1N1", "setting": "[4]", "value": "0.34 × 10^2"}, {"measurement": "EC50", "setting": "[4]", "value": 0.9, "unit": "µM"}]}
{"smiles": "N#Cc1ccc(NC(=O)COC(=O)c2ccccn2)cc1", "note": "[Compound 7]", "values": [{"measurement": "HI Titer A/Parma H1N1", "setting": "[3]", "value": 0.012, "unit": "pM"}, {"measurement": "SI (selectivity index) = CC50/EC50, A/Parma H1N1", "setting": "[4]", "value": "0.34 × 10^2"}, {"measurement": "EC50", "setting": "[4]", "value": 0.9, "unit": "µM"}]}
{"smiles": "O=C(OCC(=O)N1CCc2ccccc21)c1ccccn1", "note": "[Compound 8]", "values": [{"measurement": "HI Titer A/Parma H1N1", "setting": "[3]", "value": 0.012, "unit": "pM"}]}
{"smiles": "CN(C(=O)COC(=O)c1ccc2ccccc2n1)c1ccccc1", "note": "[Compound 9]", "values": [{"measurement": "HI Titer A/Parma H1N1", "setting": "[3]", "value": 0.012, "unit": "pM"}]}
{"smiles": "CCc1ccc(NC(=O)C(C)OC(=O)c2ccc3ccccc3n2)cc1", "note": "(stereo not shown) [Compound 10]", "values": [{"measurement": "HI Titer A/Parma H1N1", "setting": "[3]", "value": 0.012, "unit": "pM"}]}
{"smiles": "O=C(COC(=O)c1ccc2ccccc2n1)Nc1ccc2c(c1)OCCO2", "note": "[Compound 11]", "values": [{"measurement": "HI Titer A/Parma H1N1", "setting": "[3]", "value": 0.012, "unit": "pM"}]}
{"smiles": "O=C(COC(=O)c1ccc2ccccc2n1)Nc1ccccc1-c1ccccc1", "note": "[Compound 12]", "values": [{"measurement": "HI Titer A/Parma H1N1", "setting": "[3]", "value": 0.012, "unit": "pM"}]}
{"smiles": "Cc1ccc(NC(=O)COC(=O)c2ccccn2)cc1F", "note": "[Compound 13]", "values": [{"measurement": "HI Titer A/Parma H1N1", "setting": "[3]", "value": 0.012, "unit": "pM"}, {"measurement": "SI (selectivity index) = CC50/EC50, A/Parma H1N1", "setting": "[4]", "value": "0.44 × 10^2"}, {"measurement": "EC50", "setting": "[4]", "value": 0.7, "unit": "µM"}]}
{"smiles": "O=C(OCC(=O)N(c1ccccc1)C1CCCCC1)c1ccc2ccccc2n1", "note": "[Compound 14]", "values": [{"measurement": "HI Titer A/Parma H1N1", "setting": "[3]", "value": 0.012, "unit": "pM"}]}
{"smiles": "CC(=O)Nc1ccc(S(=O)(=O)NC(C)c2ccc(-n3ccnc3)cc2)cc1", "note": "(stereo not shown) [Compound 16]", "values": [{"measurement": "HI Titer A/Parma H1N1", "setting": "[3]", "value": 0.012, "unit": "pM"}]}
{"smiles": "CC(NS(=O)(=O)c1ccccc1)c1ccc(-c2ccccc2)cc1", "note": "(stereo not shown) [Compound 17]", "values": [{"measurement": "HI Titer A/Parma H1N1", "setting": "[3]", "value": 0.012, "unit": "pM"}]}
{"smiles": "Nc1cc(F)ccc1C(=O)OCC(=O)Nc1ccccc1", "note": "[Compound 18]", "values": [{"measurement": "HI Titer A/Parma H1N1", "setting": "[3]", "value": 0.012, "unit": "pM"}]}
{"smiles": "COc1ccc(NC(=O)COC(=O)c2ccc3c(c2)CCC(=O)N3)cc1", "note": "[Compound 19]", "values": [{"measurement": "HI Titer A/Parma H1N1", "setting": "[3]", "value": 0.012, "unit": "pM"}]}
{"smiles": "O=C(COC(=O)c1ccccn1)Nc1ccc(-c2ccccc2)cc1", "note": "[Compound 20]", "values": [{"measurement": "HI Titer A/Parma H1N1", "setting": "[3]", "value": 0.012, "unit": "pM"}]}
{"smiles": "O=C1CCCN1c1ccc(CNS(=O)(=O)c2ccc(F)cc2)cc1", "note": "[Compound 23]", "values": [{"measurement": "HI Titer A/Parma H1N1", "setting": "[3]", "value": 0.012, "unit": "pM"}]}
{"smiles": "O=C(COC(=O)c1ccccn1)Nc1ccc2c(c1)CCC2", "note": "[Compound 24]", "values": [{"measurement": "HI Titer A/Parma H1N1", "setting": "[3]", "value": 0.047, "unit": "pM"}]}
{"smiles": "COc1ccc(S(=O)(=O)NCc2ccc(-n3ccnc3)cc2)cc1F", "note": "[Compound 25]", "values": [{"measurement": "HI Titer A/Parma H1N1", "setting": "[3]", "value": 0.012, "unit": "pM"}, {"measurement": "SI (selectivity index) = CC50/EC50, A/Parma H1N1", "setting": "[4]", "value": "0.44 × 10^2"}, {"measurement": "EC50", "setting": "[4]", "value": 0.7, "unit": "µM"}]}
{"smiles": "Cc1nc(-c2cccc(NC(=O)COC(=O)c3ccc4ccccc4n3)c2)cs1", "note": "[Compound 26]", "values": [{"measurement": "HI Titer A/Parma H1N1", "setting": "[3]", "value": 0.047, "unit": "pM"}]}
{"smiles": "Cc1ccc(S(=O)(=O)Nc2ccc(-n3ccnc3)c(Cl)c2)cc1", "note": "[Compound 28]", "values": [{"measurement": "HI Titer A/Parma H1N1", "setting": "[3]", "value": 0.047, "unit": "pM"}]}
